According to article PMC12475274, “Harnessing indole scaffolds to identify small-molecule IRE1α inhibitors modulating XBP1 mRNA splicing” (Nature Communications, 2025):
“Also recorded” adds a separate entry of the source.

Legend:
[1] = molecular target: T1, wild-type full-length IRE1α in A549 cell lysate (Homo sapiens, UniProt O75460); assay: Thermal stability assay in A549 cell lysate; assay type: binding
T1 construct: endogenous in cells; host or cells: A549 cells
Experimental: A549 cells were harvested and seeded into 100 mm standard cell culture dishes at 80% confluency and cultured overnight. For the IA107 experiment, cells were gently washed with pre-cooled DPBS (Gibco,14190169) and lysed in RIPA buffer (Sigma, R0278) supplemented with phosphatase inhibitor (Roch, 4906845001) and 1× protease inhibitor cocktail (Sigma, P8340) for 30 min on ice. Cell lysates were centrifuged at 18,000 × g for 30 min at 4 °C and the supernatants were collected. The lysates were collected together and then aliquoted into 550 μL, the aliquots were incubated with different concentrations of IA107 with a final concentration of 0.1% DMSO for 30 min at room temperature. After the incubation, the sample was aliquoted into 10 PCR tubes, with 50 μL of lysate per tube and further heated at the indicated temperatures using a PCR cycler (25 °C for 1 min; indicated temperatures for 3 min; 16 °C, hold). After heating, the lysates were centrifuged at 18,000 × g for 30 min at 4 °C and the supernatants were collected and mixed with 4x protein loading buffer (Invitrogen, 2463559), heated at 95 °C for 10 min and separated by 4–20% MP stain-free gels (Bio-Rad, 4568095) then transferred to 0.45 μm PVDF membranes (Bio-Rad, 1704274) using the Trans-Blot Turbo Transfer System with the preprogrammed standard SD protocol (Bio-Rad). […]

GSG2 (Haspin) = GSG2 (Haspin) (Homo sapiens, UniProt Q8TF76); assay: Kinase profiling (SelectScreen), Adapta; assay type: biochemical
GSG2 (Haspin), sequence (Q8TF76 whole entry): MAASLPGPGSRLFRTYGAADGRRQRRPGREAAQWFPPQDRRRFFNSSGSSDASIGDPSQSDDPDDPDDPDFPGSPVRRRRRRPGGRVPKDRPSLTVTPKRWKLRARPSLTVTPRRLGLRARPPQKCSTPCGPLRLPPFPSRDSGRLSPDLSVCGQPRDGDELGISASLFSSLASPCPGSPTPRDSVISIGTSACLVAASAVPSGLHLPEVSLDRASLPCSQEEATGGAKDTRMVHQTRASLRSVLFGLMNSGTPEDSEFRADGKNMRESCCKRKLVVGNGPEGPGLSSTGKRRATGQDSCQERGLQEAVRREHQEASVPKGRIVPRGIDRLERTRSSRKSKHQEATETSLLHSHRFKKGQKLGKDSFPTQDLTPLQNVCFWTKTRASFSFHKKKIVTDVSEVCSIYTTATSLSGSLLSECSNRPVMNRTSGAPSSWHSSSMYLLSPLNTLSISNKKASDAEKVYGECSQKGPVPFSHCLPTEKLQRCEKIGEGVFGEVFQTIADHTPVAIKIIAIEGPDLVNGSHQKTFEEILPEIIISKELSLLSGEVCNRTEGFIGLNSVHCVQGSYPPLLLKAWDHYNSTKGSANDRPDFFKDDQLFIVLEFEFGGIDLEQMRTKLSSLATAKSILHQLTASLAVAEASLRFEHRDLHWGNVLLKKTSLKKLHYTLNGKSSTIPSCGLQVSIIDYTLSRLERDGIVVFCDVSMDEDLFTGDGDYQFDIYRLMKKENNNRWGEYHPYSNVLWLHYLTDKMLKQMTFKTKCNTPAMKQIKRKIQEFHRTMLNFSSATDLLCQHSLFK
Experimental: Kinase profiling was conducted by the SelectScreen Kinase Profiling Services (Thermo Fisher), using Z′-LYTE, Adapta, or LanthaScreen Eu Kinase Binding Assay for different kinases. The kinome phylogenetic tree was generated using the KinMap web portal.

T1 sequence (O75460 19-977): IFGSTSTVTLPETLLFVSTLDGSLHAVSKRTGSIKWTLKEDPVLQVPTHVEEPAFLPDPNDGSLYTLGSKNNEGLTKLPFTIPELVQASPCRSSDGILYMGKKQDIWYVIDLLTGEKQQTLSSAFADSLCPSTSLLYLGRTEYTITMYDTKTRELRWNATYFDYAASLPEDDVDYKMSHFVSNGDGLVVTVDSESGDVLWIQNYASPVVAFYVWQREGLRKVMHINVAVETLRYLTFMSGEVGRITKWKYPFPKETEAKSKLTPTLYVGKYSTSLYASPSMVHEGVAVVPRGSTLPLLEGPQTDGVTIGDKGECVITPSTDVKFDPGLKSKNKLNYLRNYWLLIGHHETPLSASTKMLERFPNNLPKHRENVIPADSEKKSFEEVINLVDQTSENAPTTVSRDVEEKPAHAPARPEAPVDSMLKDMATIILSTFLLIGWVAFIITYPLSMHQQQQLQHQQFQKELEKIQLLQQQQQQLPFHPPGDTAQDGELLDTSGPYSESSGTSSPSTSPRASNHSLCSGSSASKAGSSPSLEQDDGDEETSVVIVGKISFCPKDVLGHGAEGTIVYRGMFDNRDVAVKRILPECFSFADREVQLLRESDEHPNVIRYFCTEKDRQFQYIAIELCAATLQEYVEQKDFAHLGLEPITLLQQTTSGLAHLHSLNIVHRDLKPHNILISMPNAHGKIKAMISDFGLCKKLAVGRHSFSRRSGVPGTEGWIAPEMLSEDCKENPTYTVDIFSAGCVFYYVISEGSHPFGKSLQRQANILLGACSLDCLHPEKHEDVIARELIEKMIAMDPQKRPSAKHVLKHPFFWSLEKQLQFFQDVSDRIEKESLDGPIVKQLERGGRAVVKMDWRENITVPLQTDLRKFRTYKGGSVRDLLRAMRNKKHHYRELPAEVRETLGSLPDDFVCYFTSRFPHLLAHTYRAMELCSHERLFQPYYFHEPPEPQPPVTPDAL

## Cc1c(CCC(=O)O)c2cc(Br)ccc2n1C(=O)c1ccccc1 [IA107]
[1]
  thermal stabilization of full-length IRE1α in cell lysate: concentration-dependently stabilized; also recorded: stabilized full-length IRE1α in cell lysate; also recorded: stabilized the full-length IRE1α in a concentration-dependent manner
GSG2 (Haspin)
  inhibition at 5 µM: 4%
